Measured values taken from patent US8617614B2, “Sustained release preparation for tissue regeneration therapy” (Ono Pharmaceutical Co., Ltd., priority 2006, dated 2013).

Tests used:
Assay type in all cases: in vivo
[1] = test system: rat common carotid artery occlusion-disobliteration (4-VO) model; test: Water maze learning ability, rat 4-VO model
Text: Nine-week-old male Crlj:WI rats were intraperitoneally administered pentobarbital sodium and, while under anesthesia, were secured in the prone position to a brain stereotaxic instrument. An occipital incision was made in the skin and muscle layer of the neck region, the left and right pterygoid foramina of the first cervical vertebra were exposed, and the vertebral arteries were thermocoagulated by inserting the tip of a soldering iron into each pterygoid foramen, thereby permanently occluding the bilateral vertebral arteries. Next, a midline incision was made in the anterior region of the neck, the common carotid arteries on both sides were exposed and detached, a silicone tube was passed under the arteries and placed annularly around the arteries, following which the skin of the neck region was sutured together. On the day after vertebral arterial cauterization, the animals were anesthetized with diethyl ether, then immobilized in the supine position. Both common carotid arteries were exposed using the silicone tube that had been placed on the common carotid arteries in the neck region and were temporarily occluded for 10 minutes with Sugita clips, then reopened. Aside from ischemia and disobliteration, the same procedure was carried out also on a normal group ([…]).
• Test Group 1: 4-VO+medium, 8 days • Test Group 2: 4-VO+present drug, 10 mg/kg, twice daily, for 8 days • Test Group 3: 4-VO+present drug, 1 mg/kg, twice daily, for 42 days (evaluation of nerve cell number only) (2) Evaluation of number of nerve cells in CA1 region excised from brain (Groups 4 to 7) following measurement of water maze learning ability (Groups 4 to 7) • Test Group 4: normal (sham group)+medium, 42 days (normal control) • Test Group 5: 4-VO+medium, 42 days (solvent control) • Test Group 6: 4-VO+present drug, 10 mg/kg, twice daily for 42 days • Test Group 7: 4-VO+solvent for 8 days+present drug, 10 mg/kg, twice daily, for 34 days (evaluation of regenerative activity) (3) Pathology: Perfusion and fixing of the brain was carried out on day 8 in Test Groups 1 and 2, and on the day after the water maze learning ability test in Groups 4 to 7. The number of nerve cells was then counted by the same method as described above in Test 1. In Test Group 3, after drug administration was stopped, the brains were fixed at the same time as in Test Groups 4 to 7. (4) Measurement of Water Maze Learning Ability
Using Test Groups […], the […] were investigated with a Morris water maze in such a way as to avoid a bias between the groups.
A clear acrylic platform (about 12 cm in diameter and about 30 cm in height) which cannot be visually detected and a circular pool (about 148 cm in diameter and about 44 cm in height) made of gray vinyl chloride and filled with water (water temperature, 17 to 18° C.) to a height of about 32 cm so that the platform is hidden by the water were used.
The pool was divided into four quadrants, the platform was placed at the center of the fourth quadrant (about 36 cm from the center of the pool), and light bulbs were placed at the perimeter of the pool to provide a spatial reference.
Following the final drug dose, a drug-free period of at least 2 weeks was provided, after which the rat was placed in the pool from one of several points A to E with its head facing the circular pool wall, and the time it took to reach the platform (goal latency; seconds) was measured with a stopwatch (the measurement time was a maximum of 90 seconds). When the rat reached the platform within 90 seconds and remained on the platform for 30 seconds, it was judged to be aware of the platform location and measurement was brought to an end.
Goal latency measurements were carried out twice daily (once in the morning, and once in the afternoon) on days 1 to 4. The rat was placed in the pool from the various points A to E with its head facing the wall of the circular pool. […]

[2] = test system: STZ induced diabetes model; test: Nephropathy ameliorating action: 24 h urinary excretion, STZ induced diabetes model; settings: urine, week 12; STZ rat; Test Group 3: 3 mg/kg oral twice daily
Procedure: Female Sprague-Dawley rats (8- to 11-week-old; Japan SLC, Inc.) were intraperitoneally administered 40 mg/kg of a citrate buffer (pH, approx. 4.5) of streptozotocin (STZ; Sigma). A normal control group was intraperitoneally given only the citrate buffer. Administration was carried out in accordance with the intended route of administration for clinical use. In Test Group 3, forced administration was carried out orally using a disposable syringe barrel and a rat stomach probe. In Test Group 4, intramuscular administration was carried out uniformly at four places within the muscle along the sciatic nerve in the femoral portion of the left leg. For subcutaneous administration in test Group 5, the animals were ether anesthetized, and subcutaneous administration was carried out in the dorsal region using a disposable syringe barrel and a disposable 25 G syringe needle. The volume of solution administered was computed based on the latest body weight. In week 12 from the start of test substance administration, the rats were transferred to a metabolic cage, given water ad libitum, and the urine was collected for 24 hours. […] Using the 7170 Clinical Analyzer (Hitachi, Ltd.), the total urinary protein (pyrogallol red method), creatinine (creatinase/F-DAOS method) and urine sugar were measured.

[3] = Influence on body weight, STZ induced diabetes model; settings: STZ rat, Test Group 3: 3 mg/kg oral twice daily
Procedure: Female Sprague-Dawley rats (8- to 11-week-old; Japan SLC, Inc.) were intraperitoneally administered 40 mg/kg of a citrate buffer (pH, approx. 4.5) of streptozotocin (STZ; Sigma). A normal control group was intraperitoneally given only the citrate buffer.
Administration was carried out in accordance with the intended route of administration for clinical use. In Test Group 3, forced administration was carried out orally using a disposable syringe barrel and a rat stomach probe. In Test Group 4, intramuscular administration was carried out uniformly at four places within the muscle along the sciatic nerve in the femoral portion of the left leg. For subcutaneous administration in test Group 5, the animals were ether anesthetized, and subcutaneous administration was carried out in the dorsal region using a disposable syringe barrel and a disposable 25 G syringe needle. The volume of solution administered was computed based on the latest body weight.
The rat body weights were measured before test substance administration and 14 weeks after the start of test substance administration.

[4] = Test Group 6: 10 mg/kg oral twice daily 42 days
[5] = Test Group 7: solvent 8 days, then 10 mg/kg oral twice daily 34 days

SMILES: O=C(O)COc1cccc2c1CCC=C2CCO/N=C(\c1ccccc1)c1cccnc1 [present drug, ({5-[2-({[(1E)-phenyl(pyridin-3-yl)methylene]amino}oxy)ethyl]-7,8-dihydronaphthalen-1-yl}oxy)acetic acid]
- Distance traveled until rat reaches platform, AUC for Days 1 to 4 (average) [1, 4]: 3932.8 ± 1115.1
- Goal latency (seconds) Acquisition trials Day 1 (average) [1, 4]: 71.8 ± 18.3 s
- Goal latency (seconds) Acquisition trials Day 2 (average) [1, 4]: 58.8 ± 22.1 s
- Goal latency (seconds) Acquisition trials Day 3 (average) [1, 4]: 41.3 ± 28.8 s
- Goal latency (seconds) Acquisition trials Day 4 (average) [1, 4]: 33.9 ± 23.2 s
- Goal latency (seconds) Acquisition trials Trials 1 to 8 (average) [1, 4]: 51.5 ± 11.9 s
- Goal latency, AUC for Days 1 to 4 (average) [1, 4]: 152.9 ± 42.7
- goal latency (seconds) and distance traveled relative to the solvent control group (Test Group 5) ([1]; Test Group 6: oral 10 mg/kg twice daily): significant shortening
- goal latency (seconds) and distance traveled relative to the solvent control group (Test Group 5) ([1]; Test Group 7: medium up to day 8, oral 10 mg/kg twice daily from day 9): significant shortening
- Distance traveled until rat reaches platform, AUC for Days 1 to 4 (average) [1, 5]: 3850.5 ± 832.5
- Goal latency (seconds) Acquisition trials Day 1 (average) [1, 5]: 73.8 ± 15.2 s
- Goal latency (seconds) Acquisition trials Day 2 (average) [1, 5]: 55.4 ± 29.6 s
- Goal latency (seconds) Acquisition trials Day 3 (average) [1, 5]: 41.7 ± 26.7 s
- Goal latency (seconds) Acquisition trials Day 4 (average) [1, 5]: 25.8 ± 15.2 s
- Goal latency (seconds) Acquisition trials Trials 1 to 8 (average) [1, 5]: 49.2 ± 10.1 s
- Goal latency, AUC for Days 1 to 4 (average) [1, 5]: 146.9 ± 40.5
- Total excretion (mg/24 hrs) Creatinine [2]: 116.76 ± 58.15 mg/24 hrs
- Total excretion (mg/24 hrs) Total protein [2]: 245.7 ± 231.9 mg/24 hrs
- Body weight (g) 0 weeks [3]: 219.1 ± 12.2 g
- body weight relative to Test Group 2 ([3]; week 14): significant weight decreased
